From ChEMBL document CHEMBL5528051, “Chelerythrine Chloride is an Affinity-Labeling Inactivator of CYP3A4 by Modification of Cysteine239” (J Med Chem, 2024)

What was measured:
CYP3A4 [1] = molecular target: T1, CYP3A4 (Homo sapiens, UniProt P08684); assay: Inhibition of CYP3A4 (unknown origin) at 50 uM incubated for 15 mins by LC-MS/MS analysis; assay type: ADME
[2] = Chemical reactivity of compound to NAL in PBS at pH 7.4 by UV spectrometric assay; assay type: physicochemical; conditions: buffer
CYP1A2 = molecular target: T2, CYP1A2 (Homo sapiens, UniProt P05177); assay: Inhibition of human CYP1A2 assessed as remaining activity at 50 uM using phenacetin as substrate preincubated for 3 mins followed by substrate addition and measured upto 15 mins by LC-MS/MS analysis (reference value: 85.4 +/- 3.42 %); assay type: ADME; conditions: probe phenacetin, time < 18 min, read-out: Activity
T2 sequence (P05177 whole entry): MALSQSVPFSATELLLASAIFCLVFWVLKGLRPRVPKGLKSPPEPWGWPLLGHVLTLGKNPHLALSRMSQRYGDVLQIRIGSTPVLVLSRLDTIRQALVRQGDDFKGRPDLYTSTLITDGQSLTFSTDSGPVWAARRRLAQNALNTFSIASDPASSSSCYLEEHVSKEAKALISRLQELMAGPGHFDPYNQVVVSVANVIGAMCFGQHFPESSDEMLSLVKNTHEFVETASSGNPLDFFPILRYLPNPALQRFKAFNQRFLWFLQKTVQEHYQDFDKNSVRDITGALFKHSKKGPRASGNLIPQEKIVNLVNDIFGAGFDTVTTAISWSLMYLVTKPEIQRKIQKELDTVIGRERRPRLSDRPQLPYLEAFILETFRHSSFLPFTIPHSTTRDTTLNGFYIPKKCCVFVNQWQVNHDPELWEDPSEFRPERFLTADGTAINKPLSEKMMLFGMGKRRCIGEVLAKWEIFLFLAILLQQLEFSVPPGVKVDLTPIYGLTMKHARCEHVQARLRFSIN

Cytochrome P450 3A4 [3] = molecular target: T3, Cytochrome P450 3A4 (Homo sapiens, UniProt P08684); assay: Inhibition of CYP3A4 (unknown origin) at 50 uM incubated for 5 to 15 mins in absence of NADPH by LC-MS/MS analysis; assay type: ADME; conditions: time 5-15 min
T3 sequence (P08684 whole entry): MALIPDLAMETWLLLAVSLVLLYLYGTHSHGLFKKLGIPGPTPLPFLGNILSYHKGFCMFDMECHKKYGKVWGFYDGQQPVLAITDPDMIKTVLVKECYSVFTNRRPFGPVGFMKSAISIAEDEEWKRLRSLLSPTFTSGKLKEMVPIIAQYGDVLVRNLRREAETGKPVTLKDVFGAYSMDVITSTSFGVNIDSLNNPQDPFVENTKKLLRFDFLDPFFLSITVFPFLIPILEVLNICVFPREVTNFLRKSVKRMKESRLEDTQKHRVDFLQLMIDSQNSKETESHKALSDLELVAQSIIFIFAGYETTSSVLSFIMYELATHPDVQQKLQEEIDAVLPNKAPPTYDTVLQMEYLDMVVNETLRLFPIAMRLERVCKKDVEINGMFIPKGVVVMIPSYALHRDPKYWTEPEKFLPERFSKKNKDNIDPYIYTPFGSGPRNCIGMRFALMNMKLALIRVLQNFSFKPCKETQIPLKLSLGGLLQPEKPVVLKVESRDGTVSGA

CYP3A5 = CYP3A5 (Homo sapiens, UniProt P20815); assay: Inhibition of human CYP3A5 assessed as remaining activity at 50 uM using testosterone as substrate preincubated for 3 mins followed by substrate addition and measured upto 15 mins by LC-MS/MS analysis; assay type: ADME; conditions: probe testosterone, time < 18 min, read-out: Activity
Chain of CYP3A5 (P20815 whole entry): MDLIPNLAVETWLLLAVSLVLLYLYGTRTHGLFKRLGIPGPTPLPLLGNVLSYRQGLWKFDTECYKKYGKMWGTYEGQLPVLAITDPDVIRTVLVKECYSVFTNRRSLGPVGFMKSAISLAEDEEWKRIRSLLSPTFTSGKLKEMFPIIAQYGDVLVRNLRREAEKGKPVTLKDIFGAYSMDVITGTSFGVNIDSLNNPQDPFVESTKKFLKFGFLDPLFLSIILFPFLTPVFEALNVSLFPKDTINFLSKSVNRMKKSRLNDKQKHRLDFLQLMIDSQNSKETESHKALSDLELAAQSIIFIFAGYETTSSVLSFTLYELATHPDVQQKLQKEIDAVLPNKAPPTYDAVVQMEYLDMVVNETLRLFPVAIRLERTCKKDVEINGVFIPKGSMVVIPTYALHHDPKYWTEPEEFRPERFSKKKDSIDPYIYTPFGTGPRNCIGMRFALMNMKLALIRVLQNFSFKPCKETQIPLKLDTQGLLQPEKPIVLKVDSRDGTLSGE

CYP3A4 [4] = molecular target: T1, CYP3A4; assay: Inhibition of CYP3A4 (unknown origin) assessed as remaining activity at 50 uM measured 15 mins before dialysis (reference value: 87.2 +/- 2.3 %); assay type: ADME; conditions: read-out: Activity
CYP3A4 [5] = molecular target: T1, CYP3A4; assay: Inhibition of human CYP3A4 assessed as remaining activity at 50 uM using testosterone as substrate preincubated for 3 mins followed by substrate addition and measured upto 15 mins by LC-MS/MS analysis (reference value: 85.4 +/- 3.42 %); assay type: ADME; conditions: probe testosterone, time < 18 min, read-out: Activity
CYP3A4 [6] = molecular target: T1, CYP3A4; assay: Inhibition of CYP3A4 (unknown origin) assessed as remaining activity at 50 uM incubated for 15 mins in presence of 2 mM NAC; assay type: ADME; conditions: read-out: Activity
[7] = Chemical reactivity of compound to serine in PBS at pH 7.4 by UV spectrometric assay; assay type: physicochemical; conditions: buffer
CYP3A4 [8] = molecular target: T1, CYP3A4; assay: Inhibition of CYP3A4 (unknown origin) assessed as remaining activity at 50 uM measured immediately (reference value: 100 %); assay type: ADME; conditions: read-out: Activity
Cytochrome P450 3A4 [9] = molecular target: Cytochrome P450 3A4 (Homo sapiens, UniProt P08684, C239S); assay: Inhibition of CYP3A4 C239S mutant (unknown origin) expressed in CHO cells using midazolam as substrate incubated for 6 hrs by LC-MS/MS analysis; assay type: ADME, cell-based
Chain of Cytochrome P450 3A4 (Homo sapiens, UniProt P08684, C239S) (P08684 2-503 C239S limits assumed): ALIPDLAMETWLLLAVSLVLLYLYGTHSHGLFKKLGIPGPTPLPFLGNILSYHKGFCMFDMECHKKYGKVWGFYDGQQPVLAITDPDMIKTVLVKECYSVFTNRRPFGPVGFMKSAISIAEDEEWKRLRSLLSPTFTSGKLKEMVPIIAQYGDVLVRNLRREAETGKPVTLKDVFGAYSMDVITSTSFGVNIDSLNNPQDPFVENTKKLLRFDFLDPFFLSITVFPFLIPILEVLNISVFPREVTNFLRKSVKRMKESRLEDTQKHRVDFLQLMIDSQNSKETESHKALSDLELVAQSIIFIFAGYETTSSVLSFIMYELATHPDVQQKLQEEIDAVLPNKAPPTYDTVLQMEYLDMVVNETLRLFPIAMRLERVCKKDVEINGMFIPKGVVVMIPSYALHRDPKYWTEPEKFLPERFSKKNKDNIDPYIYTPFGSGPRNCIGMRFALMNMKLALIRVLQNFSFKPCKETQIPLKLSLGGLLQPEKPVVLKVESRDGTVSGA

CYP2C9 = CYP2C9 (Homo sapiens, UniProt P11712); assay: Inhibition of human CYP2C9 assessed as remaining activity at 50 uM using diclofenac sodium as substrate preincubated for 3 mins followed by substrate addition and measured upto 15 mins by LC-MS/MS analysis; assay type: ADME; conditions: probe diclofenac sodium, time < 18 min, read-out: Activity
Chain of CYP2C9 (P11712 whole entry): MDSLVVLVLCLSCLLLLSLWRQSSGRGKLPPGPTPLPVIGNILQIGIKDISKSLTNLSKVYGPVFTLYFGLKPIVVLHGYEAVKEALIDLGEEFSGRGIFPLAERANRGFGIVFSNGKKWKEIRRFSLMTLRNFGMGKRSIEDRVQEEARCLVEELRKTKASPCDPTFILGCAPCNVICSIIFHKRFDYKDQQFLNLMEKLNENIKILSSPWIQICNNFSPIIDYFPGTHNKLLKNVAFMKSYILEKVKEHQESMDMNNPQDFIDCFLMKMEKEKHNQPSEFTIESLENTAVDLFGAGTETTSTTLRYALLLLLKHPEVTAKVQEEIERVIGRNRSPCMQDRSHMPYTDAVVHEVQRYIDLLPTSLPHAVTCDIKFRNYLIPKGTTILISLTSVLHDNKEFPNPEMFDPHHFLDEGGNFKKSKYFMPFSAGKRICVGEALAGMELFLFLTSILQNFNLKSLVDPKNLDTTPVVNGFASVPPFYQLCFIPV

CYP3A4 [10] = molecular target: T1, CYP3A4; assay: Inhibition of CYP3A4 (unknown origin) assessed as remaining activity at 50 uM measured 15 mins after dialysis (reference value: 53.8 +/- 2.9 %); assay type: ADME; conditions: read-out: Activity
Cytochrome P450 3A4 [11] = molecular target: T3, Cytochrome P450 3A4; assay: Inhibition of CYP3A4 (unknown origin) at 10 to 50 uM by LC-MS/MS analysis; assay type: ADME; conditions: TDE = time-dependent effect, dose lower 10 µM, time lower 5 min, dose upper 50 µM, time upper 15 min
[12] = Chemical reactivity of compound to NAC in PBS at pH 7.4 by UV spectrometric assay; assay type: physicochemical; conditions: buffer
CYP3A4 [13] = molecular target: T1, CYP3A4; assay: Inhibition of CYP3A4 (unknown origin) assessed as remaining activity at 50 uM incubated for 15 mins in presence of 20 mM NAC; assay type: ADME; conditions: read-out: Activity
CYP3A4 [14] = molecular target: T1, CYP3A4; assay: Inhibition of CYP3A4 (unknown origin) assessed as remaining activity at 50 uM incubated for 15 mins (reference value: 85 +/- 3.4%); assay type: ADME; conditions: read-out: Activity
CYP3A4 [15] = molecular target: T1, CYP3A4; assay: Inhibition of CYP3A4 (unknown origin) assessed as residual activity at 50 uM incubated for 5 to 15 mins in presence of ketoconazole; assay type: ADME; conditions: with ketoconazole, time 5-15 min, read-out: Activity
CYP2D6 = CYP2D6 (Homo sapiens, UniProt P10635); assay: Inhibition of human CYP2D6 assessed as remaining activity at 50 uM using dextromethorphan as substrate preincubated for 3 mins followed by substrate addition and measured upto 15 mins by LC-MS/MS analysis; assay type: ADME; conditions: probe dextromethorphan, time < 18 min, read-out: Activity
Chain of CYP2D6 (P10635 whole entry): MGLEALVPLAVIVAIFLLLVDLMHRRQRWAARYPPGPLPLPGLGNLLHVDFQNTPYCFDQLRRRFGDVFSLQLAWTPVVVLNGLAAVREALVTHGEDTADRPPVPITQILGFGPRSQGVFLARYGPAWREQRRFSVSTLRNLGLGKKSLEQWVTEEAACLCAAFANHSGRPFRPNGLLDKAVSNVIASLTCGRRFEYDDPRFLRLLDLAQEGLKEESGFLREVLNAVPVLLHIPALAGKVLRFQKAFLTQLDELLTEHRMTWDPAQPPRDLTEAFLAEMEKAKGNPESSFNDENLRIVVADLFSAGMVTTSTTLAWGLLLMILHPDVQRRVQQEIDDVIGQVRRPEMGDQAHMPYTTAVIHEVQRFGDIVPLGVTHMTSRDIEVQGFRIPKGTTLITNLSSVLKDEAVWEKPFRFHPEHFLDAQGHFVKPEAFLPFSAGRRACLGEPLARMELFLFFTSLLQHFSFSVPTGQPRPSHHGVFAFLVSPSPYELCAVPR

Cytochrome P450 3A4 [16] = molecular target: T3, Cytochrome P450 3A4; assay: Inhibition of wild type CYP3A4 (unknown origin) expressed in CHO cells using midazolam as substrate incubated for 6 hrs by LC-MS/MS analysis; assay type: ADME, cell-based
Cytochrome P450 3A4 [17] = molecular target: T3, Cytochrome P450 3A4; assay: Inhibition of CYP3A4 (unknown origin) at 50 uM preincubated for 3 mins followed by NADPH addition and measured after 5 to 15 mins by LC-MS/MS analysis; assay type: ADME; conditions: time 8-18 min
Cytochrome P450 3A4 [18] = molecular target: T3, Cytochrome P450 3A4; assay: Inhibition of CYP3A4 (unknown origin) incubated for 5 to 15 mins by LC-MS/MS analysis; assay type: ADME; conditions: at 10 to 50 µM, dose lower 10 µM, time lower 5 min, dose upper 50 µM, time upper 15 min
CYP2B6 = molecular target: T4, CYP2B6 (Homo sapiens, UniProt P20813); assay: Inhibition of human CYP2B6 assessed as remaining activity at 50 uM using bupropion.HCl as substrate preincubated for 3 mins followed by substrate addition and measured upto 15 mins by LC-MS/MS analysis; assay type: ADME; conditions: buffer, probe bupropion.HCl, time < 18 min, read-out: Activity
T4 sequence (P20813 whole entry): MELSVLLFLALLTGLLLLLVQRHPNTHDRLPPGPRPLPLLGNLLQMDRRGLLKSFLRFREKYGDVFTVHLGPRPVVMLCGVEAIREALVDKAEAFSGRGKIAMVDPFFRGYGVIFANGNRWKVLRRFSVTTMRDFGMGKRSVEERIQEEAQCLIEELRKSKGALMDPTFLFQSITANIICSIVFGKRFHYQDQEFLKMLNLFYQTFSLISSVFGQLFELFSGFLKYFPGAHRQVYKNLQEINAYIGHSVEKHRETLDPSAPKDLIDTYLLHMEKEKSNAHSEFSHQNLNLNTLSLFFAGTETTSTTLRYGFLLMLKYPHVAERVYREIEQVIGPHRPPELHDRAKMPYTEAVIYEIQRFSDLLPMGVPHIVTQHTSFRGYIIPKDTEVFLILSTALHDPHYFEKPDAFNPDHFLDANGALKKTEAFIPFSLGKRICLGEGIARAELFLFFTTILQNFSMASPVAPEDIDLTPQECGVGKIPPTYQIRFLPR

CYP2C19 = CYP2C19 (Homo sapiens, UniProt P33261); assay: Inhibition of human CYP2C19 assessed as remaining activity at 50 uM using omeprazole as substrate preincubated for 3 mins followed by substrate addition and measured upto 15 mins by LC-MS/MS analysis; assay type: ADME; conditions: probe omeprazole, time < 18 min, read-out: Activity
Chain of CYP2C19 (P33261 whole entry): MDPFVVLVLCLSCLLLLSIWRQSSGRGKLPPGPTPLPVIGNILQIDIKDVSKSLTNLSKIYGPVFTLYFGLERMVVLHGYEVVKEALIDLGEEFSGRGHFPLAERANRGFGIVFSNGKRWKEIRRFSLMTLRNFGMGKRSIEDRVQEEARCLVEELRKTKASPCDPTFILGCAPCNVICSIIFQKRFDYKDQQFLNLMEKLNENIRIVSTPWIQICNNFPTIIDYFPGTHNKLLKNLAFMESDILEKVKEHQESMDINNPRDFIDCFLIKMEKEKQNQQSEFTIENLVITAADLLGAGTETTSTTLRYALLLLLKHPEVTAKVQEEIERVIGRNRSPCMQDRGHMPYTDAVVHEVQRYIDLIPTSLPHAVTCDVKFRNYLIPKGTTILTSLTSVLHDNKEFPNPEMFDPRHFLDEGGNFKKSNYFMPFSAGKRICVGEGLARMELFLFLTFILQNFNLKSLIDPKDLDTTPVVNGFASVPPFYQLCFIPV

CYP2A6 = molecular target: T5, CYP2A6 (Homo sapiens, UniProt P11509); assay: Inhibition of human CYP2A6 assessed as remaining activity at 50 uM using coumarin as substrate preincubated for 3 mins followed by substrate addition and measured upto 15 mins by LC-MS/MS analysis; assay type: ADME; conditions: probe coumarin, time < 18 min, read-out: Activity
T5 sequence (P11509 whole entry): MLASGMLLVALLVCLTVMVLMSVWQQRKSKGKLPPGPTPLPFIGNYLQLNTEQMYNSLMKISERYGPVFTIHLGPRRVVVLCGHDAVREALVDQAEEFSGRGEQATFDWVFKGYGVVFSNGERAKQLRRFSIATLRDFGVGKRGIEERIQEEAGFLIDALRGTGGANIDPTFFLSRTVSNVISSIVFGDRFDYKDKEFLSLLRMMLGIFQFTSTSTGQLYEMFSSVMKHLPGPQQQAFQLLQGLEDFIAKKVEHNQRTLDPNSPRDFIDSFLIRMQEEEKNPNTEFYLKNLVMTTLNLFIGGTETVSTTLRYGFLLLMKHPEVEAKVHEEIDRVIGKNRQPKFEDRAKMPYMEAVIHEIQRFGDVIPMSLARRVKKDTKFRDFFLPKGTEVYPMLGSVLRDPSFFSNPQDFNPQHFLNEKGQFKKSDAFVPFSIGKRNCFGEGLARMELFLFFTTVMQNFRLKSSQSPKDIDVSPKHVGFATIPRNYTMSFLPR

CYP2E1 = CYP2E1 (Homo sapiens, UniProt P05181); assay: Inhibition of human CYP2E1 assessed as remaining activity at 50 uM using 4-nitrophenol as substrate preincubated for 3 mins followed by substrate addition and measured upto 15 mins by LC-MS/MS analysis; assay type: ADME; conditions: probe 4-nitrophenol, time < 18 min, read-out: Activity
Chain of CYP2E1 (P05181 whole entry): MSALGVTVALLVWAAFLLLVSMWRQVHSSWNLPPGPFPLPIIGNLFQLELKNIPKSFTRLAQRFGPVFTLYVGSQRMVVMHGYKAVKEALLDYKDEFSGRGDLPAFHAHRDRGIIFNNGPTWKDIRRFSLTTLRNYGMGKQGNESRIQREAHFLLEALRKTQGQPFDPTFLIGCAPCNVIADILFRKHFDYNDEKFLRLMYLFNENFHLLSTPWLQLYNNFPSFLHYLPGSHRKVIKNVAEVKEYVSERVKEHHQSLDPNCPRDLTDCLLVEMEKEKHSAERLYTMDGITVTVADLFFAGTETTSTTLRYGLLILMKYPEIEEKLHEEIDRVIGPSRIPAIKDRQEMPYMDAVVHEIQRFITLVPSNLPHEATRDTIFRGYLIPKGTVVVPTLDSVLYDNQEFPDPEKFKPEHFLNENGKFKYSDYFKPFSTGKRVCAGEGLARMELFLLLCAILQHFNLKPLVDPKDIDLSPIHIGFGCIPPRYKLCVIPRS

Cytochrome P450 3A4 [19] = molecular target: T3, Cytochrome P450 3A4; assay: Time dependent inhibition of CYP3A4 (unknown origin) at 50 uM measured after 5 to 15 mins; assay type: ADME; conditions: time 5-15 min
Cytochrome P450 3A4 [20] = molecular target: T3, Cytochrome P450 3A4; assay: Time dependent inhibition of CYP3A4 (unknown origin) at 50 uM measured after 5 to 15 mins in presence of NADPH; assay type: ADME; conditions: time 5-15 min

T1 sequence (P08684 whole entry): as the sequence (P08684 whole entry) above

## COc1ccc2c(c[n+](C)c3c4cc5c(cc4ccc23)OCO5)c1OC.[Cl-] [CHELERYTHRINE CHLORIDE]
CYP3A4 [1]
  inhibition at 0.25 h, 50 µM: 75%
[2]
  Drug metabolism: Metabolite_Notdetected
CYP1A2
  activity at 0.25 h, 50 µM: > 50%
Cytochrome P450 3A4 [3]
  inhibition (INH): Active
CYP3A5
  activity at 0.25 h, 50 µM: > 50%
CYP3A4 [4]
  activity at 0.25 h, 50 µM: 43.8%
CYP3A4 [5]
  activity at 0.25 h, 50 µM: 26.3%
CYP3A4 [6]
  activity at 0.25 h, 50 µM: 49.9%
[7]
  Drug metabolism: Metabolite_Notdetected
CYP3A4 [8]
  activity at 0 min, 50 µM: 70.7%
Cytochrome P450 3A4 [9]
  inhibition (INH): Not Active
CYP2C9
  activity at 0.25 h, 50 µM: > 50%
CYP3A4 [10]
  activity at 0.25 h, 50 µM: 25.1%
Cytochrome P450 3A4 [11]
  inhibition (INH): Tde
[12]
  Drug metabolism: Metabolite_Detected
CYP3A4 [13]
  activity at 0.25 h, 50 µM: 85.9%
CYP3A4 [14]
  activity at 0.25 h, 50 µM: 26%
CYP3A4 [15]
  activity at 50 µM: 50%
CYP2D6
  activity at 0.25 h, 50 µM: > 50%
Cytochrome P450 3A4 [16]
  inhibition (INH): Active
Cytochrome P450 3A4 [17]
  inhibition (INH): Active
Cytochrome P450 3A4 [18]
  inhibition (INH): Dose-Dependent Effect
CYP2B6
  activity at 0.25 h, 50 µM: > 50%
CYP2C19
  activity at 0.25 h, 50 µM: > 50%
CYP2A6
  activity at 0.25 h, 50 µM: > 50%
CYP2E1
  activity at 0.25 h, 50 µM: > 50%

## COc1ccc2c(c1OC)CN(C)c1c-2ccc2cc3c(cc12)OCO3 [DIHYDROCHELERYTHRINE]
Cytochrome P450 3A4 [19]
  TDI: Not Active

## COc1cc2c[n+](C)c3c4cc5c(cc4ccc3c2cc1OC)OCO5.[Cl-] [NITIDINE CHLORIDE]
[2]
  Drug metabolism: Metabolite_Notdetected
[7]
  Drug metabolism: Metabolite_Notdetected
[12]
  Drug metabolism: Metabolite_Notdetected
Cytochrome P450 3A4 [20]
  TDI: Active
